{"source": "patent US6057335A", "about": "“Pyrazole derivatives” (Banyu Pharmaceutical Co., Ltd., priority 1996, dated 2000)", "target": "T1, human NPY Y5 receptor (Homo sapiens, UniProt Q15761)", "T1 construct": "expressed in transfected cells; host or cells: COS-7, CHO and LM(tk-)", "T1 sequence (Q15761 1-445)": "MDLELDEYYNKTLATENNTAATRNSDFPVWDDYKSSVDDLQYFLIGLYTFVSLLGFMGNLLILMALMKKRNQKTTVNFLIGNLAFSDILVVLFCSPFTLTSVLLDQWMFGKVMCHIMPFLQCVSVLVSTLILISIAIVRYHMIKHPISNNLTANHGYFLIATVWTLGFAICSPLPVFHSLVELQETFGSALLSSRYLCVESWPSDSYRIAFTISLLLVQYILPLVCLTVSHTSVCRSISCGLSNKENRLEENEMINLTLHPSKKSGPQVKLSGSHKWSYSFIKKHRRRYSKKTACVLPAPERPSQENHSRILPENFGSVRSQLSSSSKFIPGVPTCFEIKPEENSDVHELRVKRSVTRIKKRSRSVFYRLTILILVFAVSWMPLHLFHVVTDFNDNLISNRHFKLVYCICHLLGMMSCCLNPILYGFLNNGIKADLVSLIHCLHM", "test": "test of inhibition of NPY binding ([125I] peptide YY binding to NPY Y5 receptor)", "details": "[125I] peptide YY 20,000 cpm, 25° C., 2 hours, pH 7.4, membrane preparations of cells expressing NPY Y5 receptor; read-out: IC50 value (concentration needed to inhibit 50% of the specific binding to the peptide YY)", "from_the_text": "Pharmacological Test Example 1 (test of inhibition of NPY binding)\ncDNA Sequence encoding a human NPY Y5 receptor [International Publication WO 96/16542] was cloned into expression vectors pcDNA3, pRc/RSV (manufactured by Invitrogen) and pCI-neo (manufactured by Promega). Using the cationic lipid method [see Proceedings of the National Academy of Science of the United States of America, vol.84, p.7413 (1987)], host cells COS-7, CHO and LM(tk-) (American Type Culture Collection) were transfected with the thus prepared expression vectors to obtain cells in which the NPY Y5 receptor had been expressed.\nEach of the membrane preparations thus prepared from the cells in which the NPY Y5 receptor had been expressed was incubated together with each compound to be tested and 20,000 cpm of [^125 I] peptide YY (manufactured by Amersham) at 25° C. for 2 hours in an assay buffer solution (25 mM HEPES buffer, pH 7.4, containing 10 mM magnesium chloride, 1 mM phenylmethylsulfonyl fluoride and 0.1% bacitracin) and then, the reaction mixture was filtered through a glass filter GF/C. After washing with 50 mM Tris buffer, pH 7.4, containing 0.3% BSA, radioactivity on the glass filter was measured using a gamma counter. […]"}
{"smiles": "COc1ccc(-c2cc(NC(=O)C3Cc4cc5ccccc5cc4C3)n[nH]2)cc1OC", "note": "[Example 30, 3-(2,3-dibydro-1H-cyclopenta[b]naphthalen-2-yl)carbonylamino-5-(3,4-dimethoxyphenyl)pyrazole]", "values": [{"measurement": "IC50", "value": 2.5, "unit": "nM"}]}
